Tested on: HepG2 cells
Test: Oil red O staining of fat accumulation in oleic acid-treated HepG2 cells
Assay type: cell-based, human
Conditions: 10 μg/mL compound (dissolved in DMSO)
Description: HepG2 cells were cultured at 37° C. under 5% carbon dioxide in DMEM supplemented with 10% FBS and 1% penicillin/streptomycin, hereinafter referred to as DMEM culture medium.
To prepare the oil red O staining solution, the dye, oil red O, was first dissolved in 100% isopropanol thoroughly to prepare a 30 mg/mL oil red O stock solution. To obtain a ready-to-use oil red O staining solution, the stock solution was diluted with double deionized water to a concentration of 18 mg/mL and filtered through a 0.22 μm filter immediately before use.
To obtain a DMEM containing oleic acid-BSA conjugate, 10 mg/mL BSA and 28 μg/mL oleic acid were added to a DMEM with 2% FBS and 1% penicillin/streptomycin. The resulting mixture was stirred for about 30 minutes to facilitate the conjugation between oleic acid and BSA and the formation of conjugates.
The neutral fat content of cells was determined by oil red O staining. Prior to staining, the cells after indicated treatment were washed with PBS and then fixed with 10% formaldehyde for 30 minutes. The fixed cells were washed once with PBS and rinsed with 50% isopropanol for 15 seconds. Thereafter, the cells were stained with the oil red O staining solution for 1 hour. […] Alternatively, the intracellular dye was dissolved with 100% isopropanol and quantified by spectrophotometry. […]

| Structure (SMILES) | reduction of fat accumulation in HepG2 cells compared with oleic acid alone |
| --- | --- |
| O=C(OCC1OC(OC(=O)c2cc(O)c(O)c(O)c2)C(OC(=O)c2cc(O)c(O)c(O)c2)C(OC(=O)c2cc(O)c(O)c(O)c2)C1OC(=O)c1cc(O)c(O)c(O)c1)c1ccc(O)cc1 (centres unmarked) [formula (Ia)] | approximately 33% |
| O=C(OCC1OC(OC(=O)c2cc(O)c(O)c(O)c2)C(OC(=O)c2cc(O)c(O)c(O)c2)C(OC(=O)c2cc(O)c(O)c(O)c2)C1OC(=O)c1cc(O)c(O)c(O)c1)c1cc(O)c(O)c(O)c1 (centres unmarked) [formula (Ib), 1,2,3,4,6-penta-O-galloyl-glucopyranoside] | ~44% |

From US10918683B2, “Methods to reduce fat accumulation and oxidative damage in liver using green mango extracts and compounds obtained therefrom” (TCI CO., LTD., priority 2018, dated 2021)
